Experiments:
Type in all cases: in vivo
[1] = test system: Amaranthus retroflexus (AMARE); assay: Post-emergence herbicidal action against AMARE; conditions: 320 g/ha, visual rating about 3 weeks after treatment
Summary of the method: (§1)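 Rates were 320 g/ha or below, applied as aqueous WP/EC spray with 0.5% additive (600 l/ha) onto one-leaf-stage plants. About 3 weeks later in the greenhouse, damage was scored visually against untreated plants on a 0–100% scale, where 100% means plants died.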

Lolium rigidum (LOLRI) [2] = assay: Post-emergence herbicidal action against LOLRI
Summary of the method: as §1

[3] = test system: Alopecurus myosuroides (ALOMY); assay: Post-emergence herbicidal action against ALOMY; conditions: visual rating about 3 weeks after treatment vs untreated controls (100% = plants have died, 0% = like control plants)
Summary of the method: as §1

[4] = test system: Matricaria inodora (MATIN); assay: Pre-emergence herbicidal action against MATIN
Summary of the method: (§2)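 Read-out is visual percent damage relative to untreated pots, with 100% meaning dead plants and 0% meaning no difference, assessed roughly three weeks after treatment. Compounds were applied pre-emergence to the covering soil at up to 320 g/ha.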

Viola tricolor (VIOTR) [5] = assay: Post-emergence herbicidal action against VIOTR
Summary of the method: as §1

Avena fatua (AVEFA) [6] = assay: Post-emergence herbicidal action against AVEFA; conditions: visual rating about 3 weeks after treatment
Summary of the method: as §1

[7] = test system: Alopecurus myosuroides (ALOMY); assay: Pre-emergence herbicidal action against ALOMY; conditions: 320 g/ha; scored visually after about 3 weeks; 100% = plants have died
Summary of the method: as §2

[8] = test system: Verconica persica (VERPE); assay: Pre-emergence herbicidal action against VERPE; conditions: dosage 320 g/ha
Summary of the method: as §2

[9] = test system: Abutilon theophrasti (ABUTH); assay: Post-emergence herbicidal action against ABUTH; conditions: 320 g/ha, visual rating about 3 weeks after treatment vs untreated controls (100% = plants have died, 0% = like control plants)
Summary of the method: as §1

Setaria viridis (SETVI) [10] = assay: Pre-emergence herbicidal action against SETVI
Summary of the method: as §2

[11] = test system: Polygonum convolvulus (POLCO); assay: Pre-emergence herbicidal action against POLCO
Summary of the method: as §2

Viola tricolor (VIOTR) [12] = assay: Pre-emergence herbicidal action against VIOTR
Summary of the method: as §2

[13] = test system: Verconica persica (VERPE); assay: Post-emergence herbicidal action against VERPE
Summary of the method: as §1

[14] = test system: Amaranthus retroflexus (AMARE); assay: Pre-emergence herbicidal action against AMARE; conditions: visual scoring after about 3 weeks vs untreated controls
Summary of the method: as §2

[15] = test system: Matricaria inodora (MATIN); assay: Post-emergence herbicidal action against MATIN; conditions: dosage 320 g/ha
Summary of the method: as §1

[16] = test system: Digitaria sanguinalis (DIGSA); assay: Pre-emergence herbicidal action against DIGSA
Text: Seeds of monocotyledonous and dicotyledonous weed plants and crop plants are placed in plastic or organic planting pots and covered with soil. The compounds of the invention, formulated in the form of wettable powders (WP) or as emulsion concentrates (EC), are then applied to the surface of the covering soil as aqueous suspension or emulsion with addition of 0.5% additive at a water application rate equivalent to 600 l/ha. After the treatment, the pots are placed in a greenhouse and kept under good growth conditions for the trial plants. After about 3 weeks, the effect of the preparations is scored visually in comparison with untreated controls as percentages. For example, 100% activity=the plants have died, 0% activity=like control plants.
Tables A1 to A13 below show the effects of selected compounds of the general formula (I) on various harmful plants and at an application rate corresponding to 320 g/ha or lower, which were obtained by the experimental procedure mentioned above. The appendices “a”, “b” and “c” give differentiation by dosage used with otherwise the same harmful plants tested.

[17] = test system: Echinochloa crus-galli (ECHCG); assay: Post-emergence herbicidal action against ECHCG
Summary of the method: as §1

[18] = test system: Pharbitis purpurea (PHBPU); assay: Post-emergence herbicidal action against PHBPU
Summary of the method: as §1

Avena fatua (AVEFA) [19] = assay: Pre-emergence herbicidal action against AVEFA; conditions: 320 g/ha, visual scoring after about 3 weeks vs untreated controls
Summary of the method: as §2

[20] = test system: Echinochloa crus-galli (ECHCG); assay: Pre-emergence herbicidal action against ECHCG
Summary of the method: as §2

Setaria viridis (SETVI) [21] = assay: Post-emergence herbicidal action against SETVI
Summary of the method: as §1

Lolium rigidum (LOLRI) [22] = assay: Pre-emergence herbicidal action against LOLRI; conditions: dosage 320 g/ha
Summary of the method: as §2

[23] = test system: Pharbitis purpurea (PHBPU); assay: Pre-emergence herbicidal action against PHBPU
Summary of the method: as §2

[24] = test system: Digitaria sanguinalis (DIGSA); assay: Post-emergence herbicidal action against DIGSA; conditions: 320 g/ha, visual rating about 3 weeks after treatment
Summary of the method: as §1

[25] = 80 g/ha, visual scoring after about 3 weeks vs untreated controls

SMILES | Post-emergence action against LOLRI in % (Lolium rigidum (LOLRI) [2]; dosage 320 g/ha) [%] | Post-emergence action against ALOMY in % ([3]; 320 g/ha) [%] | Pre-emergence action against MATIN in % ([4]; dosage 320 g/ha) [%] | Post-emergence action against VIOTR in % (Viola tricolor (VIOTR) [5]; 320 g/ha) [%] | Pre-emergence action against ALOMY [7] [%] | Pre-emergence action against VERPE in % [8] [%] | Pre-emergence action against SETVI in % (Setaria viridis (SETVI) [10]; dosage 320 g/ha) [%] | Pre-emergence action against POLCO in % ([11]; dosage 320 g/ha) [%] | Pre-emergence action against VIOTR in % (Viola tricolor (VIOTR) [12]; 320 g/ha, Viola tricolor) [%] | Pre-emergence action against AMARE in % ([14]; 320 g/ha) [%] | Pre-emergence action against DIGSA in % [16, 25] [%] | Pre-emergence action against DIGSA in % ([16]; dosage 320 g/ha) [%] | Post-emergence action against ECHCG in % ([17]; dosage 80 g/ha) [%] | Post-emergence action against ECHCG in % ([17]; dosage 320 g/ha) [%] | Post-emergence action against PHBPU in % ([18]; dosage 80 g/ha) [%] | Post-emergence action against PHBPU in % ([18]; dosage 320 g/ha) [%] | Pre-emergence action against ECHCG in % ([20]; dosage 320 g/ha) [%] | Post-emergence action against SETVI in % (Setaria viridis (SETVI) [21]; dosage 320 g/ha) [%] | Pre-emergence action against LOLRI in % (Lolium rigidum (LOLRI) [22]) [%] | other results
CCOC(=O)COc1nn(-c2ccccn2)c(-c2ccnc(F)c2)c1Br [Example I-01, Ethyl {[4-bromo-5-(2-fluoropyridin-4-yl)-1-(pyridin-2-yl)-1H-pyrazol-3-yl]oxy}acetate] | 90 | 100 | 100 | 100 | 100 | 90 | 100 | 90 | 90 | 90 | 80 | 100 | 80 | 90 | 80 | 80 | 90 | 80 | 100 | Post-emergence action against AMARE in % [1]: 80%; Post-emergence action against LOLRI in % (Lolium rigidum (LOLRI) [2]; dosage 80 g/ha): 80%; Post-emergence action against ALOMY in % ([3]; 80 g/ha): 100%; Post-emergence action against VIOTR in % (Viola tricolor (VIOTR) [5]; 80 g/ha): 90%; Post-emergence action against AVEFA in % (Avena fatua (AVEFA) [6]; 80 g/ha): 90%; Post-emergence action against AVEFA in % (Avena fatua (AVEFA) [6]; 320 g/ha): 100%; Post-emergence action against ABUTH in % [9]: 80%; Post-emergence action against VERPE in % ([13]; 320 g/ha, VERPE): 90%; Post-emergence action against VERPE in % ([13]; dosage 80 g/ha): 80%; Pre-emergence action against AMARE in % ([14]; 80 g/ha): 80%; Post-emergence action against MATIN in % [15]: 90%; Pre-emergence action against AVEFA in % (Avena fatua (AVEFA) [19]): 80%
CCOC(=O)COc1nn(-c2nc(F)ccc2F)c(-c2cncc(F)c2)c1Cl [Example I-163] | 80 | 80 | 90 | 80 | 90 | 80 | 100 | 80 | 100 | 90 | 90 | 100 | 80 | 80 | 80 | 90 | 90 | 90 | 90 | Pre-emergence action against MATIN in % ([4]; dosage 80 g/ha): 90%; Pre-emergence action against PHBPU in % ([23]; dosage 80 g/ha): 90%; Pre-emergence action against PHBPU in % ([23]; dosage 320 g/ha): 90%; Pre-emergence action against SETVI in % (Setaria viridis (SETVI) [10]; dosage 80 g/ha): 80%; Pre-emergence action against POLCO in % ([11]; dosage 80 g/ha): 80%; Pre-emergence action against VIOTR in % (Viola tricolor (VIOTR) [12]; dosage 80 g/ha): 90%; Post-emergence action against DIGSA in % [24]: 80%; Pre-emergence action against ECHCG in % ([20]; dosage 80 g/ha): 80%; Post-emergence action against SETVI in % (Setaria viridis (SETVI) [21]; dosage 80 g/ha): 80%

— patent US20240041042A1, “1-(PYRIDYL)-5-AZINYLPYRAZOLE DERIVATIVES, AND THEIR USE FOR CONTROL OF UNDESIRED PLANT GROWTH” (Bayer Aktiengesellschaft, priority 2020, published 2024)
